A short description of data set [1]: Available chlorine present as hypochlorous acid as a function of pH (FIG. 2). It is filed as physicochemical. The source says:
The concentration of hypochlorous acid solutions (HOCl) are usually reported as free available chlorine (FAC) in parts per million (ppm). Hypochlorous acid (HOCl) is in equilibrium with hypochlorite ion (^−OCl) and Cl2 and the extent of the equilibrium is controlled by the pH of the solution, as shown in FIG. 2. Therefore, both FAC and pH need to be known to understand the amount of chlorine present as hypochlorous acid.
Thus at pH 5, a 100 ppm FAC solution will have 100 ppm chlorine present as HOCl.

Data set [2] in a line: Window cleaner streak test, sprayed on glass and dried without wiping. The conditions noted are these: test solution as used in streak test.

Take `OCl` [hypochlorous acid]: in data set [1] (pH 7.5), the “FAC present as hypochlorous acid” value came to 50%. Besides, in data set [1] (pH of 3), the “available chlorine present as hypochlorous acid” value is listed as “about 90%”. The “available chlorine present as HOCl” value in data set [1] (pH range of 4 to 5.6) is “approximately 100%”.
In the case of `[Na+].[OH-]` [NaOH, sodium hydroxide], in data set [2], the pH is 12.2.

Source of the values: patent US20150119245A1, “Method for Producing Shelf Stable Hypochlorous Acid Solutions” (priority 2013, published 2015).
